Data: patent US9539237B2, “Compositions and methods for drug-sensitization or inhibition of a cancer cell” (The Texas A&M University System, priority 2012, dated 2017)

Experiments:
[1] = tested on: G3 CHOP-resistant NHL cells; assay: G3 tumor efficacy studies in SCID mice; type: in vivo
Method: In a first efficacy study, 6-8 week old female SCID mice (7 mice per treatment arm) were injected subcutaneously on both flanks with 1×10^7 G3 CHOP-resistant NHL cells. Once palpable tumors (about […] size) appeared, therapies (CHOP or CHOP+rifabutin) were started. CHOP was administered at the maximum tolerated dose (cyclophosphamide, 40 mg/kg i.v.; doxorubicin, 3.3 mg/kg i.v.; vincristine, 0.5 mg/kg i.v.; and prednisone, 0.2 mg/kg orally daily for 5 d) weekly for 3 weeks. Rifabutin in an amount of 100 mg/kg was administered on the day of each CHOP treatment and 24-hours later by gavage. Mouse body weight and tumor size were monitored every two days and tumor size measured by caliper. The tumor volume formula (L*W*W)/2 was used to calculate tumor mass.
A second efficacy study was conducted where mice were treated before the appearance of palpable tumors. In that experiment, one week after transplantation of CHOP-resistant G3 cells, one group (7 mice) was treated with CHOP-only and a second group (8 mice) was treated with CHOP+rifabutin.
A third study was conducted in which mice injected with CHOP-resistant G3 cells received reduced dosages of CHOP in combination with 33 mg/kg rifabutin. CHOP+rifabutin was administered weekly beginning one week post-inoculation. Control mice were given no CHOP or rifabutin.
SCID mice were injected with CHOP-resistant G3 cells in the same manner as the first efficacy study above. Treatments began 2 weeks post-inoculation and were administered twice weekly.

[2] = tested on: CHOP-sensitive CRL2631 cells; assay: Prevention of the emergence of CHOP resistance in CRL2631 cells; type: cell-based, human; settings: half (0.5×) and full (1×) doses of CHOP, one week treatment
Method: The ability of rifabutin to prevent the emergence of CHOP-resistance was determined by treating CHOP-sensitive CRL2631 cells with either CHOP alone or CHOP+rifabutin for one week. Following treatment, the cells were grown in the absence of CHOP, then their sensitivity to CHOP was assayed by retreatment with CHOP, followed by counting of viable cells. […] A 1× CHOP dose in this experiment corresponds to final concentrations of the following components: 0.83 μM 4-hydroxycyclophosphamide [4HC, a pre-activated form of cyclophosphamide], 0.057 μM doxorubicin, 0.01 μM vincristine, and 0.186 μM prednisone.

CO[C@H]1/C=C/O[C@@]2(C)Oc3c(C)c(O)c4c(c3C2=O)C2=NC3(CCN(CC(C)C)CC3)NC2=C(NC(=O)/C(C)=C\C=C\[C@H](C)[C@H](O)[C@@H](C)[C@@H](O)[C@@H](C)[C@H](OC(C)=O)[C@@H]1C)C4=O [Rifabutin, rifabutin]
Overall tumor burden per mouse versus CHOP only ([1]; first study, CHOP at maximum tolerated dose weekly for 3 weeks + rifabutin 100 mg/kg by gavage): much lower | Tumor load versus untreated mice ([1]; third study, reduced dosages of CHOP + 33 mg/kg rifabutin weekly): significantly less | Emergence of CHOP-resistant cells [2]: significantly repress
